Drawing on patent publication US20110224079A1, “SPIROHETEROCYCLIC N-OXYAMIDES AS PESTICIDES” (SYNGENTA CROP PROTECTION LLC, priority 2008, published 2011), this text covers mortality for 60 molecules.

In assay [1] the test system is Myzus persicae (green peach aphid). The experiment in a line: Example B1: activity against Myzus persicae, sprayed sunflower leaf discs (feeding/residual contact, preventive). As to conditions: foliar, 144 h, read-out: activity (mortality).
Assay [2] shares this test system. The experiment in a line: Example B17: activity against Myzus persicae on sprayed pepper plants (feeding/residual contact). As to conditions: 144 h, infested pepper plants sprayed, 6 days. It counts as in vivo.
For assay [3] the test system is unchanged. The experiment in a line: Example B2: activity against Myzus persicae, pea seedling roots in test solution (systemic/feeding, curative). The settings on record: 144 h, read-out: activity (mortality).

For the molecule `CCOC(=O)OC1=C(c2c(C)cc(-c3ccc(Cl)cc3)cc2C)C(=O)N(OCOC)C12CCN(OC)CC2` [P1.20], the mortality at 400 ppm in assay [1] is above 80%.
On to `CCOC(=O)OC1=C(c2c(C)cc(C)cc2C)C(=O)N(OC2CCCCC2)C12CCN(OC)CC2` [P1.30], for which the mortality at 400 ppm in assay [1] was above 80%.
As to `CCOC(=O)OC1=C(c2cc(C)c(Cl)cc2C)C(=O)N(OCOC)C12CCN(OC)CC2` [P1.32], the mortality at 200 ppm in assay [2] was at least 80%.
`CCOC(=O)OC1=C(c2cc(C)c(Cl)cc2C)C(=O)N(OCCOC)C12CCN(OC)CC2` [P1.33]: the mortality at 400 ppm in assay [1] is above 80%.
Turning to `CCOC(=O)OC1=C(c2cc(C)c(Cl)cc2C)C(=O)N(OC)C12CCN(OC)CC2` [P1.34], the mortality at 400 ppm in assay [1] is above 80%.
As for `CCOC(=O)OC1=C(c2cc(C)c(C)cc2Cl)C(=O)N(OCCOC)C12CCN(OC)CC2` [P1.35], the mortality at 400 ppm in assay [1] and in assay [3] was above 80% throughout.
In the case of `CCOC(=O)OC1=C(c2cc(C)c(C)cc2C)C(=O)N(OCCOC)C12CCN(OC)CC2` [P1.36], the mortality at 400 ppm in assay [1] was above 80%.
As for `CCOC(=O)OC1=C(c2c(C)ccc(Cl)c2C)C(=O)N(OC)C12CCN(OC)CC2` [P1.37], in assay [1], the mortality at 400 ppm was above 80%. The molecule also registered a mortality at 200 ppm in assay [2] of at least 80%.
The matching figures for `CCOC(=O)OC1=C(c2cc(C)c(C)cc2Cl)C(=O)N(OCOC)C12CCN(OC)CC2` [P1.38]: above 80% and at least 80%.
On to `CCOC(=O)OC1=C(c2cc(C)c(C)cc2Cl)C(=O)N(OC)C12CCN(OC)CC2` [P1.39], for which the mortality at 400 ppm in assay [1] is above 80%.
For `CCOC(=O)OC1=C(c2c(Cl)ccc(C)c2F)C(=O)N(OC)C12CCN(OC)CC2` [P1.41], in assay [3], the mortality at 400 ppm was above 80%.
On the same count and under the same terms, to `CCOC(=O)OC1=C(c2c(Cl)ccc(C)c2F)C(=O)N(OCOC)C12CCN(OC)CC2` [P1.42] belongs above 80%; to `CCOC(=O)OC1=C(c2c(C)cc(C)c(C)c2C)C(=O)N(OCCOC)C12CCN(OC)CC2` [P1.46], above 80%.
Consider `CCOC(=O)OC1=C(c2ccc(C)cc2C)C(=O)N(OCOC)C12CCN(OC)CC2` [P1.50], for which the mortality at 400 ppm in assay [1] and in assay [3] was above 80% throughout.
For `CCOC(=O)OC1=C(c2cc(C)c(C)cc2Br)C(=O)N(OCOC)C12CCN(OC)CC2` [P1.52], the mortality at 400 ppm in assay [3] was above 80%.
Take `CCOC(=O)OC1=C(c2cc(C)c(C)cc2C)C(=O)N(OC)C12CCN(OC)CC2` [P1.57]: the mortality at 400 ppm in assay [1] and in assay [3] was above 80% throughout. In addition, the mortality at 200 ppm in assay [2] is at least 80%.
Turning to `CCOC(=O)OC1=C(c2c(C)cc(Br)cc2C)C(=O)N(OC2CCCO2)C12CCN(OC)CC2` (centres unmarked) [P1.63], the mortality at 400 ppm in assay [1] and in assay [3] was above 80% in each case. This molecule showed a mortality at 200 ppm in assay [2] of at least 80%.
For `CCOC(=O)OC1=C(c2cc(C)c(C)cc2Cl)C(=O)N(OC2CCCO2)C12CCN(OC)CC2` (centres unmarked) [P1.64], the mortality at 400 ppm in assay [3] was above 80%.
Turning to `CCOC(=O)OC1=C(c2c(C)ccc(Cl)c2C)C(=O)N(OCCOC)C12CCN(OC)CC2` [P1.65], the mortality at 400 ppm in assay [3] is above 80%. In assay [2], this molecule registered a mortality at 200 ppm of at least 80%.
Take `CCOC(=O)OC1=C(c2c(C)cc(C)cc2Br)C(=O)N(OC)C12CCN(OC)CC2` [P1.66]: the mortality at 400 ppm in assay [1] and in assay [3] was above 80% in each case.
With `CCOC(=O)OC1=C(c2c(C)cc(C)cc2Br)C(=O)N(OCCOC)C12CCN(OC)CC2` [P1.67], the mortality at 400 ppm in assay [1] and in assay [3] was above 80% throughout.
`CCOC(=O)OC1=C(c2c(C)cc(C)cc2Br)C(=O)N(OCOC)C12CCN(OC)CC2` [P1.68]: the mortality at 400 ppm in assay [1] and in assay [3] was above 80% in each case.
Turning to `CCOC(=O)OC1=C(c2c(C)cccc2C)C(=O)N(OCCOC)C12CCN(OC)CC2` [P1.73], the mortality at 400 ppm in assay [1] and in assay [3] was above 80% in each case. In assay [2], this molecule showed a mortality at 200 ppm of at least 80%.
For `CCOC(=O)OC1=C(c2c(C)cc(C)cc2C)C(=O)N(OC2COC2)C12CCN(OC)CC2` [P1.79], the mortality at 400 ppm in assay [3] was above 80%. Besides, the mortality at 200 ppm in assay [2] was at least 80%.
As for `CCOC(=O)OC1=C(c2c(C)cc(Br)cc2C)C(=O)N(OCCOC)C12CCN(OC)CC2` [P1.89], the mortality at 400 ppm in assay [1] and in assay [3] was above 80% in each case. In assay [2], this molecule had a mortality at 200 ppm of at least 80%.
For `CCOC(=O)OC1=C(c2c(F)ccc(C)c2Cl)C(=O)N(OC2CCCO2)C12CCN(OC)CC2` (centres unmarked) [P1.102], the mortality at 400 ppm in assay [3] is above 80%.
Turning to `CCOC(=O)OC1=C(c2cc(C)c(Cl)cc2C)C(=O)N(OC2CCCO2)C12CCN(OC)CC2` (centres unmarked) [P1.103], the mortality at 400 ppm in assay [1] was above 80%.
Consider `CCOC(=O)OC1=C(c2c(C)cc(C)cc2C)C(=O)N(OC2CCOC2)C12CCN(OC)CC2` (centres unmarked) [P1.108], for which the mortality at 400 ppm in assay [1] and in assay [3] was above 80% in each case.
In turn, `CON1CCC2(CC1)C(O)=C(c1cc(C)c(Cl)cc1C)C(=O)N2OC` [P2,31] showed a mortality at 200 ppm in assay [2] of at least 80%.
As for `COCON1C(=O)C(c2cc(C)c(Cl)cc2C)=C(O)C12CCN(OC)CC2` [P2.27], the mortality at 400 ppm in assay [3] is above 80%.
Regarding `COCCCON1C(=O)C(c2c(C)cc(C)cc2C)=C(O)C12CCN(OC)CC2` [P2.28], the mortality at 400 ppm in assay [1] and in assay [3] was above 80% throughout.
Take `COCCON1C(=O)C(c2cc(C)c(Cl)cc2C)=C(O)C12CCN(OC)CC2` [P2.29]: the mortality at 200 ppm in assay [2] is at least 80%.
For the molecule `COCCON1C(=O)C(c2cc(C)c(C)cc2Cl)=C(O)C12CCN(OC)CC2` [P2.32], in assay [3], the mortality at 400 ppm is above 80%.
In the case of `CON1CCC2(CC1)C(O)=C(c1ccc(C)cc1C)C(=O)N2OC1CCCO1` (centres unmarked) [P2.33], the mortality at 400 ppm in assay [1] and in assay [3] was above 80% in each case. In assay [2], this molecule had a mortality at 200 ppm of at least 80%.
On to `CON1CCC2(CC1)C(O)=C(c1cc(C)c(C)cc1C)C(=O)N2OC` [P2.36], for which, in assay [1], the mortality at 400 ppm is above 80%. Further, the mortality at 200 ppm in assay [2] is at least 80%.
Take `COCCON1C(=O)C(c2cc(C)c(C)cc2C)=C(O)C12CCN(OC)CC2` [P2.37]: in assay [1], the mortality at 400 ppm is above 80%.
As for `COCON1C(=O)C(c2cc(C)c(C)cc2C)=C(O)C12CCN(OC)CC2` [P2.38], the mortality at 400 ppm in assay [1] was above 80%. Moreover, in assay [2], the mortality at 200 ppm is at least 80%.
With `CON1CCC2(CC1)C(O)=C(c1c(C)ccc(Cl)c1C)C(=O)N2OC` [P2.40], the mortality at 400 ppm in assay [1] and in assay [3] was above 80% each time. Moreover, the mortality at 200 ppm in assay [2] is at least 80%.
`COCON1C(=O)C(c2cc(C)c(C)cc2Br)=C(O)C12CCN(OC)CC2` [P2.41]: the mortality at 400 ppm in assay [1] and in assay [3] was above 80% throughout.
`CON1CCC2(CC1)C(O)=C(c1cc(C)c(C)cc1Cl)C(=O)N2OC` [P2.43] displayed a mortality at 200 ppm in assay [2] of at least 80%.
As to `CON1CCC2(CC1)C(O)=C(c1c(Cl)ccc(C)c1F)C(=O)N2OC1CCCO1` (centres unmarked) [P2.44], in assay [3], the mortality at 400 ppm is above 80%.
For `COCON1C(=O)C(c2c(Cl)ccc(C)c2F)=C(O)C12CCN(OC)CC2` [P2.46], the mortality at 400 ppm in assay [3] was above 80%.
Same read-out and setting: the figure for `CON1CCC2(CC1)C(O)=C(c1c(C)cc(C)c(C)c1C)C(=O)N2OC` [P2.49] is above 80%.
For the molecule `COCON1C(=O)C(c2ccc(C)cc2C)=C(O)C12CCN(OC)CC2` [P2.52], the mortality at 400 ppm in assay [1] and in assay [3] was above 80% in each case.
As for `COCCON1C(=O)C(c2cc(C)c(C)cc2Br)=C(O)C12CCN(OC)CC2` [P2.53], in assay [3], the mortality at 400 ppm is above 80%.
On the same count and under the same terms, to `COCCON1C(=O)C(c2c(F)ccc(C)c2Cl)=C(O)C12CCN(OC)CC2` [P2.59] belongs above 80%.
Regarding `CCOCON1C(=O)C(c2ccc(C)cc2C)=C(O)C12CCN(OC)CC2` [P2.61], the mortality at 400 ppm in assay [1] and in assay [3] was above 80% throughout.
With `CON1CCC2(CC1)C(O)=C(c1c(C)cc(C)cc1C)C(=O)N2OC1COC1` [P2.66], the mortality at 400 ppm in assay [1] and in assay [3] was above 80% in each case. The same molecule showed a mortality at 200 ppm in assay [2] of at least 80%.
`COCCON1C(=O)C(c2c(C)ccc(Cl)c2C)=C(O)C12CCN(OC)CC2` [P2.70]: the mortality at 400 ppm in assay [1] and in assay [3] was above 80% each time. Moreover, the mortality at 200 ppm in assay [2] is at least 80%.
As to `COCON1C(=O)C(c2c(C)ccc(Cl)c2C)=C(O)C12CCN(OC)CC2` [P2.71], the mortality at 400 ppm in assay [3] was above 80%. The mortality at 200 ppm in assay [2] is at least 80%.
As for `COCON1C(=O)C(c2c(C)cc(C)cc2Br)=C(O)C12CCN(OC)CC2` [P2.72], the mortality at 400 ppm in assay [1] and in assay [3] was above 80% in each case.
As for `COCON1C(=O)C(c2cc(Br)c(C)cc2C)=C(O)C12CCN(OC)CC2` [P2.74], the mortality at 400 ppm in assay [1] was above 80%.
Take `CON1CCC2(CC1)C(O)=C(c1c(C)cccc1C)C(=O)N2OC` [P2.78]: the mortality at 400 ppm in assay [1] and in assay [3] was above 80% throughout. Besides, the mortality at 200 ppm in assay [2] is at least 80%.
With `COCCON1C(=O)C(c2c(C)cc(Br)cc2C)=C(O)C12CCN(OC)CC2` [P2.80], the mortality at 400 ppm in assay [1] and in assay [3] was above 80% in each case.
In assay [2], `CON1CCC2(CC1)C(O)=C(c1c(C)cc(C)cc1C)C(=O)N2OCC1CCSCC1` [P2.82] had a mortality at 200 ppm of at least 80%.
On to `CON1CCC2(CC1)C(O)=C(c1c(F)ccc(C)c1Cl)C(=O)N2OC1CCCO1` (centres unmarked) [P2.92], for which the mortality at 400 ppm in assay [1] and in assay [3] was above 80% in each case.
Consider `CON1CCC2(CC1)C(O)=C(c1cc(C)c(Cl)cc1C)C(=O)N2OC1CCCO1` (centres unmarked) [P2.93], for which, in assay [1], the mortality at 400 ppm was above 80%.
For the molecule `CON1CCC(ON2C(=O)C(c3c(C)cc(C)cc3C)=C(O)C23CCN(OC)CC3)CC1` [P2.95], the mortality at 400 ppm in assay [3] was above 80%. Further, the mortality at 200 ppm in assay [2] is at least 80%.
With `CON1CCC2(CC1)C(O)=C(c1c(C)cc(C)cc1C)C(=O)N2OC1CCOC1` (centres unmarked) [P2.98], the mortality at 400 ppm in assay [1] and in assay [3] was above 80% each time.
Turning to `CON1CCC2(CC1)C(O)=C(c1c(C)cc(C)cc1C)C(=O)N2OCCSC` [P2.99], the mortality at 400 ppm in assay [3] was above 80%. Besides, the mortality at 200 ppm in assay [2] was at least 80%.

The mortality is the share of the test organisms that died.
